Consider 13 molecules from paper PMC10606488, “Usnic Acid Derivatives Inhibit DNA Repair Enzymes Tyrosyl-DNA Phosphodiesterases 1 and 2 and Act as Potential Anticancer Agents” (Genes, 2023).

Like-named read-outs stand apart in the source and are kept apart here.

Data set [1] deals with T1, Recombinant human Tdp2 (Homo sapiens, UniProt O95551).
T1 construct: made in house
T1 sequence (O95551 1-362): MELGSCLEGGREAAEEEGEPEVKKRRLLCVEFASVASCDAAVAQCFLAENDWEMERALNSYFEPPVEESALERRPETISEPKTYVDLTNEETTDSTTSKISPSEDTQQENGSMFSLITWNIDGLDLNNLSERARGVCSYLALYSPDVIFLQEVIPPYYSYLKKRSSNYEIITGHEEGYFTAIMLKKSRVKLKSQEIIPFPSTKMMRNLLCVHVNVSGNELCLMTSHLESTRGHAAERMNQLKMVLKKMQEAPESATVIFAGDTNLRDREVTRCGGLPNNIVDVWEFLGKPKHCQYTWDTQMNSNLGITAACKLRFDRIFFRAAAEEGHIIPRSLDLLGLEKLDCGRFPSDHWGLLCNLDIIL
Kind of data set: Gel-based Tdp2 activity assay. The class given is biochemical.

Data set [2] has as its system purified recombinant human Tdp1. Conditions: cited from earlier work.
The test system of a further data set is HEK293FT wild-type cells. Kind of data set: Intrinsic cytotoxicity, MTT test, wild-type cells. The data set is classed as cell-based, human. Conditions: 10 μM compound, 3 days. How it is done: (§1) The intrinsic cytotoxicity of the compounds was examined against cell line HEK293FT (human embryonic kidney) with a standard MTT test. The cells were grown in DMEM-F12 medium, with 50 IU/mL penicillin and 50 µg/mL streptomycin (Thermo Fisher Scientific, Waltham, MA, USA) in the presence of 10% fetal bovine serum (Biolot, Saint-Petersburg, Russia) in 5% CO2 atmosphere. Tested compounds were added after formation of a 30–50% monolayer to the medium (1:100 added reagents to the total volume of the culture medium, thus the final concentration of DMSO was 1%) and the cell culture was monitored for 3 days. Control cells were grown in the presence of 1% DMSO. The measurements of cytotoxicity were carried out in three repeats.
Since Tdp inhibitors are intended to be used in therapeutic cocktails, non-toxic concentrations of the compounds are required so as not to exacerbate the already serious side effects of therapy. We studied the intrinsic cytotoxicity of the compounds, (−)-11a,d,h, that inhibited Tdp2 on HEK293FT wild-type cells and Tdp2 knockout (Tdp2^−/−) cells (Figure 3). Tdp2 knockout HEK293FT cells were obtained using the CRISPR/Cas9 method. At 10 μM concentration, the cell survival was not less than 80% for both types of cells. This concentration was chosen for further studies of the ability of the compounds to sensitize the effect of the Top2 inhibitor etoposide.

The next data set deals with HEK293FT Tdp2−/− cells. In words: Intrinsic cytotoxicity, MTT test, Tdp2 knockout cells. The data set is classed as cell-based, human. The following applies: 10 μM compound, 3 days. How it is done: as §1
We performed a selection of protospacers for human Tdp2 gene knockout with the Benchling CRISPR tool (https://www.benchling.com/) (accessed on 13 February 2020). Two 20-nt protospacer sequences were selected for deletion of exon 6 (PAM sequences in brackets) of the human Tdp2 gene (NM_016614.3): Tdp2-gRNA1 […](AGG) and Tdp2-gRNA2 […](TGG). The scheme of protospacers in the Tdp2 gene is shown on Figure S9A in the Supplementary Materials. Oligonucleotides were cloned in a pSpCas9(BB)-2A-GFP (PX458) plasmid that was a kind gift from Dr. Feng Zhang (Addgene plasmid #48138; http://n2t.net/addgene:48138 (accessed on 13 February 2020), RRID:Addgene_48138) as previously described. Transfection-grade DNA plasmids were isolated with the Plasmid Plus Midi Kit (QIAGEN, Hilden, Germany).
We transfected HEK293FT cells with the constructed plasmids (0.25 µg of each) pX458-Tdp2-gRNA1 and pX458-Tdp2-gRNA2 using Lipofectamine 3000 Reagent (Thermofisher Scientific, Waltham, MA, USA). We used growth medium containing DMEM/F12 (Thermofisher Scientific, MA, USA) 1:1, 10% fetal bovine serum (Thermofisher Scientific, MA, USA), 100 U/mL penicillin–streptomycin (Thermofisher Scientific, MA, USA), and GlutaMAX (1×) (Thermofisher Scientific, Waltham, MA, USA). […]

Data set [3] deals with tyrosyl-DNA phosphodiesterase 2. The following applies: Figure 2; read-out: IC50 (Tdp2); cited from earlier work.
Data set [4] deals with T1, Recombinant human Tdp2. On the set-up: method as in PMID 34768766, PMID 35011303. Conditions: Figure 2; cited from earlier work.
A short description of data set [5]: Effect of compounds on the cytotoxicity of etoposide, Tdp2 knockout cells. The class given is cell-based. The following applies: human, HEK293FT Tdp2 knockout (Tdp2−/−) cells, with vehicle (DMSO 1%). How it is done:
as §1
(§2) Different concentrations of etoposide and fixed concentrations of usnic acid derivatives 10 μM were used to evaluate the effect of the tested compounds on the cytotoxicity of etoposide.
We performed a selection of protospacers for human Tdp2 gene knockout with the Benchling CRISPR tool (https://www.benchling.com/) (accessed on 13 February 2020). […]
We studied the effect of Tdp2 inhibitors on the cytotoxic effect of etoposide. The CC50 for etoposide was measured in the presence and absence of compounds. […] The significance of the differences between the metabolic activity of WT and Tdp2^−/− cells was assessed using the Mann–Whitney test. […]

Data set [6] is described as follows: Effect of compounds on the cytotoxicity of etoposide, wild-type cells. The class given is cell-based. The following applies: human, HEK293FT wild-type cells; with vehicle (DMSO 1%), HEK293FT WT. How it is done:
as §1, §2
We studied the effect of Tdp2 inhibitors on the cytotoxic effect of etoposide. The CC50 for etoposide was measured in the presence and absence of compounds. The sensitivity to etoposide in Tdp2 knockout cells was close to wild-type cells (Figure 4a). […] The significance of the differences between the metabolic activity of WT and Tdp2^−/− cells was assessed using the Mann–Whitney test. […]

Setting [7] is: (+)-usnic acid derivatives, read-out: Tdp1 IC50.
[8] abbreviates: (−)-usnic acid derivatives, read-out: Tdp1 IC50.
Where [9] appears, read: Figure 1, read-out: IC50 (Tdp1).
Setting [10] is: Figure 2, read-out: IC50 (Tdp1).

Regarding `CC(=O)C1=C(O)C=C2Oc3c(-c4csc(NN=Cc5ccc[nH]5)n4)c(O)c(C)c(O)c3C2(C)C1=O` (single isomer, unassigned; (+)) [(+)-11a], the concentration for half-maximal inhibition (IC50) on Recombinant human Tdp2 [1] ((+)-usnic acid derivatives) is greater than 50 µM; in data set [2] (setting [7]), 188 ± 3 nM.

Take `CC(=O)C1=C(O)C=C2Oc3c(-c4csc(NN=Cc5c[nH]c6ccccc56)n4)c(O)c(C)c(O)c3C2(C)C1=O` (single isomer, unassigned; (+)) [(+)-11d]: the IC50 on Recombinant human Tdp2 [1] ((+)-usnic acid derivatives) was greater than 50 µM; in data set [2] (setting [7]) it was 26 ± 6 nM.

Consider `COc1ccc(C=NNc2nc(-c3c(O)c(C)c(O)c4c3OC3=CC(O)=C(C(C)=O)C(=O)C34C)cs2)cc1CN1CCN(c2ccc(F)cc2)CC1` (single isomer, unassigned; (+)) [(+)-11h], for which the IC50 on Recombinant human Tdp2 [1] ((+)-usnic acid derivatives) was greater than 50 µM; in data set [2] (setting [7]), 80 ± 7 nM.

For the molecule `CC(=O)C1=C(O)C=C2Oc3c(-c4csc(NN=Cc5ccc[nH]5)n4)c(O)c(C)c(O)c3C2(C)C1=O` (single isomer, unassigned; (-)) [(−)-11a], the cell survival entry in the data set with HEK293FT wild-type cells and in the data set with HEK293FT Tdp2−/− cells was “not less than 80%” in each case. Moreover, the IC50 on Recombinant human Tdp2 [1] ((−)-usnic acid derivatives) was 8 ± 4 µM; in data set [2] (setting [8]), 18 ± 1 nM.

Consider `CC(=O)C1=C(O)C=C2Oc3c(-c4csc(NN=Cc5c[nH]c6ccccc56)n4)c(O)c(C)c(O)c3C2(C)C1=O` (single isomer, unassigned; (-)) [(−)-11d], for which the cell survival result with HEK293FT wild-type cells and with HEK293FT Tdp2−/− cells was “not less than 80%” each time. Moreover, the IC50 on Recombinant human Tdp2 [1] ((−)-usnic acid derivatives) is 6 ± 3 µM; in data set [2] (setting [8]) it was 57 ± 1 nM.

With `COc1ccc(C=NNc2nc(-c3c(O)c(C)c(O)c4c3OC3=CC(O)=C(C(C)=O)C(=O)C34C)cs2)cc1CN1CCN(c2ccc(F)cc2)CC1` (single isomer, unassigned; (-)) [(−)-11h], the cell survival result in the data set on HEK293FT wild-type cells and in the data set with HEK293FT Tdp2−/− cells was “not less than 80%” each time. In addition, the half-inhibitory concentration (IC50) at Recombinant human Tdp2 [1] ((−)-usnic acid derivatives) is 9 ± 1 µM; in data set [2] (setting [8]), 59 ± 5 nM.

For `CC(C)=CCC/C(C)=C/COc1ccc2c(-c3ccc(I)cc3)cc(=O)oc2c1` [compound 2, reference compound], the IC50 in data set [2] (setting [9]) was 620 nM.

Consider `CC(=O)c1c(O)c(C)c(O)c2c1OC1=CC(=O)/C(=C(/C)NCCCc3cc(C(C)(C)C)c(O)c(C(C)(C)C)c3)C(=O)[C@@]12C` [compound 3, reference compound], for which, in data set [2] (setting [9]), the IC50 is 160 nM.

On to `CC(=O)C1=C(O)C=C2Oc3c(-c4csc(N/N=C/c5ccc(Br)cc5)n4)c(O)c(C)c(O)c3[C@@]2(C)C1=O` [compound 4, reference compound], for which the 50% inhibitory concentration (IC50) in data set [2] (setting [9]) was 26 nM.

With `NC1=CC(N)=C2C=CC(=O)N=C2C1=O` [compound 6], the 50% inhibitory concentration (IC50) in data set [3] is 1700 nM.

Consider `CC(=O)C1=C(O)C=C2Oc3c(C(=O)CSC4=NCCS4)c(O)c(C)c(O)c3[C@@]2(C)C1=O` [compound 7, reference compound], for which the values for the half-inhibitory concentration (IC50) (at Recombinant human Tdp2 [4]; in data set [2] (setting [10])) were roughly 1 mM and 4400 nM, respectively.

As to `C[C@H](CCC(=O)NCCc1c[nH]c2ccccc12)[C@H]1CCC2C3CCC4C[C@H](OCc5ccccc5)CC[C@]4(C)C3C[C@H](O)[C@@]21C` (stereo partly shown) [compound 8, reference compound], the half-inhibitory concentration (IC50) is roughly 1 mM on Recombinant human Tdp2 [4] and 240 nM in data set [2] (setting [10]).

For the molecule `COc1cc([C@@H]2c3cc4c(cc3[C@@H](O[C@@H]3O[C@@H]5CO[C@@H](C)O[C@H]5[C@H](O)[C@H]3O)[C@H]3COC(=O)[C@H]23)OCO4)cc(OC)c1O` [etoposide], the 50% cytotoxic concentration (CC50) at 3 days was 2300 nM in data set [5] and 2400 nM in data set [6].
